Source: patent US20210177778A1, “EXOSOME PRODUCTION PROMOTER” (DAICEL CORPORATION, priority 2017, published 2021)

Tested on: Human neuroblastoma-derived SH-SY5Y cell
Experiment: Number of exosome particles released by SH-SY5Y cells after sphingolipid addition (qNano)
Format: cell-based
Details: 10 μM sphingolipid, 24 hours, particles per mg cell protein
Procedure: Human neuroblastoma-derived SH-SY5Y cell was used as the cultured cell. After the cell was inoculated in a 6-well plate at 2.5×10^5 cells/well together with a medium (50% Ham's F12/50% E-MEM) and cultured at 37° C. for 24 hours, the animal ceramide (Cer), sphingomyelin (SM), or glucosylceramide (GuCer) sphingolipid was each added to each well. The sphingolipid was suspended in a serum-free medium (50% Ham's F12/50% E-MEM) containing 3% bovine serum albumin (BSA), and added so that the concentration in the well was 10 μM. The control was performed when the added amount of sphingolipid was 0 μM. […]
The exosome recovered by the centrifugation method was suspended in a HEPES/KCl buffer, and then the number of particles was measured with a nanoparticle analyzer qNano (Izon Inc.). The measured value was expressed as the number of particles per protein mass (mg) of the derived cell calculated by the BCA method. […]
Experimental Example 2 was performed under the same conditions as in the above Experimental Example 1 except that the konjac-derived glucosylceramide (kGluCer) or the konjac-derived ceramide (kCer) are used as the sphingolipid and sphingolipids having concentrations of 5 μM, 7.5 μM, or 10 μM, respectively, were added to the cell in place of a concentration of 0 μM (control), and the number of exosome particles was measured.

SMILES | number of exosome particles compared to the control
CCCCCCCCCCCCC/C=C/[C@@H](O)[C@H](CO)NC(=O)CCCCCCCCCCCCCCCCC [C18 ceramide, N-stearoyl-D-erythro-sphingosine] | further promoted
CCCCCCCCCCCCC/C=C/[C@@H](O)[C@H](CO)NC(=O)CCCCC [C6 ceramide, N-hexanoyl-D-erythro-sphingosine] | further promoted
